# US10927123B2, “Modulators of the beta-3 adrenergic receptor useful for the treatment or prevention of disorders related thereto” (Arena Pharmaceuticals, Inc., priority 2016, dated 2021)
# Target: Beta-3 Adrenergic Receptor (Homo sapiens (Human), UniProt P13945)
# Test: HTRF cAMP antagonist assay (IC50 determination)
# Format: cell-based
# Conditions: CHO-K1 cells stably expressing recombinant receptor; antagonism of isoproterenol at EC90; cAMP readout
# Procedure: HTRF cAMP assays were performed according to manufacturer's instructions (Cisbio, cAMP Dynamic 2 Assay Kit; #62AM4PEJ). CHO-K1 cells stably expressing recombinant receptor were harvested and suspended in warm PBS to make a 300,000 cells/mL stock. This cell suspension was dispensed into 384 well assay plates (PerkinElmer ProxiPlate #6008280) at 5 μL per well (1500 cells/well) along with a cAMP standard curve.
# Compounds were dissolved and serially diluted (5-fold) in DMSO to generate a 10-point dose response stock. The stock was then diluted 100-fold in assay buffer (PBS containing 1 mM IBMX) before a volume of 2.5 μL was added to the cells (the final, top concentration of compound in the dose-response is typically 10 or 100 μM). After a brief incubation, 2.5 μL of isoproterenol stock, prepared at a concentration 4 times its EC90 at the receptor of interest, was added to the wells. The EC90 for isoproterenol, a beta-adrenergic agonist, was determined in separate experiments using standard methods to measure agonist potencies.
# Following a 1-hour incubation at room temperature, 5 μL of cAMP-D2 Reagent diluted in Lysis Buffer was added to each well followed by 5 μL of Cryptate Reagent. Plates were further incubated at room temperature for 1 hour prior to reading. Time resolved fluorescence measurements were collected on a suitable, HTRF-capable plate reader.
# Counts from the plate reader were fit to the cAMP standard curve on the assay plate in order to determine cAMP concentrations in each well, and these values were used to construct dose-response curves to obtain IC50 values.
# Chain of Beta-3 Adrenergic Receptor (P13945 whole entry, species assumed): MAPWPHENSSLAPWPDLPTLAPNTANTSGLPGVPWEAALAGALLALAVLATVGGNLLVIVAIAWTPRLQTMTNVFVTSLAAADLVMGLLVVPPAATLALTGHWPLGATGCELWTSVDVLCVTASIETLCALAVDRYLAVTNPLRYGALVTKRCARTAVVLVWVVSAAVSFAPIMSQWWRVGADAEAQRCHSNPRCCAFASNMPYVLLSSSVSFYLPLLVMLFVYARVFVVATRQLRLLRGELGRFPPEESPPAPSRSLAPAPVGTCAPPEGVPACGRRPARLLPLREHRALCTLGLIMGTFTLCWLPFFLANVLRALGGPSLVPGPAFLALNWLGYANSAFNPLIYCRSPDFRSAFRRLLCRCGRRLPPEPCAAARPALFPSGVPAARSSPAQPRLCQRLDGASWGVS
row,IC50 [nM],SMILES
1,34.2,"O=S(=O)(CC1CC1)c1cccc(OC[C@@H](O)CNC2COC3(CCN(S(=O)(=O)c4ccc5ccccc5c4)CC3)C2)c1 (stereo partly drawn) [Compound 7, (2S)-1-(3-(cyclopropylmethylsulfonyl)phenoxy)-3-(8-(naphthalen-2-ylsulfonyl)-1-oxa-8-azaspiro[4.5]decan-3-ylamino)propan-2-ol]"
2,12.1,"CC(C)S(=O)(=O)c1cccc(OC[C@@H](O)CNC2COC3(CCN(S(=O)(=O)c4ccc5ccccc5c4)CC3)C2)c1 (stereo partly drawn) [Compound 8, (2S)-1-(3-(isopropylsulfonyl)phenoxy)-3-(8-(naphthalen-2-ylsulfonyl)-1-oxa-8-azaspiro[4.5]decan-3-ylamino)propan-2-ol]"
3,24.2,"O=S(=O)(CCC(F)(F)F)c1cccc(OC[C@@H](O)CNC2COC3(CCN(S(=O)(=O)c4ccc5ccccc5c4)CC3)C2)c1 (stereo partly drawn) [Compound 9, (2S)-1-(8-(naphthalen-2-ylsulfonyl)-1-oxa-8-azaspiro[4.5]decan-3-ylamino)-3-(3-(3,3,3-trifluoropropylsulfonyl)phenoxy)propan-2-ol]"
4,25.1,"CC(C)CS(=O)(=O)c1cccc(OC[C@@H](O)CNC2COC3(CCN(S(=O)(=O)c4ccc5ccccc5c4)CC3)C2)c1 (stereo partly drawn) [Compound 10, (2S)-1-(3-(isobutylsulfonyl)phenoxy)-3-(8-(naphthalen-2-ylsulfonyl)-1-oxa-8-azaspiro[4.5]decan-3-ylamino)propan-2-ol]"
5,35.5,"CC(C)CCS(=O)(=O)c1cccc(OC[C@@H](O)CNC2COC3(CCN(S(=O)(=O)c4ccc5ccccc5c4)CC3)C2)c1 (stereo partly drawn) [Compound 11, (2S)-1-(3-(isopentylsulfonyl)phenoxy)-3-(8-(naphthalen-2-ylsulfonyl)-1-oxa-8-azaspiro[4.5]decan-3-ylamino)propan-2-ol]"
6,130,"N#CCS(=O)(=O)c1cccc(OC[C@@H](O)CNC2COC3(CCN(S(=O)(=O)c4ccc5ccccc5c4)CC3)C2)c1 (stereo partly drawn) [Compound 12, 2-(3-((2S)-2-hydroxy-3-(8-(naphthalen-2-ylsulfonyl)-1-oxa-8-azaspiro[4.5]decan-3-ylamino)propoxy)phenylsulfonyl)acetonitrile]"

# Further lines, the compound ahead of its results:
row,SMILES,IC50 [nM]
1,"CS(=O)(=O)c1cccc(OC[C@@H](O)CNC2COC3(CCN(S(=O)(=O)c4ccc5ccccc5c4)CC3)C2)c1 (stereo partly drawn) [Compound 1, (2S)-1-(3-(methylsulfonyl)phenoxy)-3-(8-(naphthalen-2-ylsulfonyl)-1-oxa-8-azaspiro[4.5]decan-3-ylamino)propan-2-ol]",4.42
2,"CS(=O)(=O)c1cccc(OC[C@H](O)CNC2COC3(CCN(S(=O)(=O)c4ccc5ccccc5c4)CC3)C2)c1 (stereo partly drawn) [Compound 2, (2R)-1-(3-(methylsulfonyl)phenoxy)-3-(8-(naphthalen-2-ylsulfonyl)-1-oxa-8-azaspiro[4.5]decan-3-ylamino)propan-2-ol]",44.8
3,"CS(=O)(=O)c1cccc(OC[C@@H](O)CN[C@H]2COC3(CCN(S(=O)(=O)c4ccc5ccccc5c4)CC3)C2)c1 [Compound 3, (S)-1-(3-(methylsulfonyl)phenoxy)-3-((R)-8-(naphthalen-2-ylsulfonyl)-1-oxa-8-azaspiro[4.5]decan-3-ylamino)propan-2-ol]",5.47
4,"CS(=O)(=O)c1cccc(OC[C@@H](O)CN[C@@H]2COC3(CCN(S(=O)(=O)c4ccc5ccccc5c4)CC3)C2)c1 [Compound 4, (S)-1-(3-(methylsulfonyl)phenoxy)-3-((S)-8-(naphthalen-2-ylsulfonyl)-1-oxa-8-azaspiro[4.5]decan-3-ylamino)propan-2-ol]",4.45
5,"O=S(=O)(CCO)c1cccc(OC[C@@H](O)CNC2COC3(CCN(S(=O)(=O)c4ccc5ccccc5c4)CC3)C2)c1 (stereo partly drawn) [Compound 5, (2S)-1-(3-(2-hydroxyethylsulfonyl)phenoxy)-3-(8-(naphthalen-2-ylsulfonyl)-1-oxa-8-azaspiro[4.5]decan-3-ylamino)propan-2-ol]",33.3
6,"CCCS(=O)(=O)c1cccc(OC[C@@H](O)CNC2COC3(CCN(S(=O)(=O)c4ccc5ccccc5c4)CC3)C2)c1 (stereo partly drawn) [Compound 6, (2S)-1-(8-(naphthalen-2-ylsulfonyl)-1-oxa-8-azaspiro[4.5]decan-3-ylamino)-3-(3-(propylsulfonyl)phenoxy)propan-2-ol]",16.5
